Source: US6649643B1, “Imidazol-4-ylmehanols and their use as inhibitors of steroid C17-20 lyase” (Takeda Chemical Industries, Ltd., priority 1999, dated 2003)
Structures can show the parent of a compound that is named as a salt.

What was measured:
Rat Steroid C17,20-lyase = molecular target: T1, Rat Steroid C17,20-lyase (Rattus norvegicus, UniProt P11715); test: Inhibitory activity on a rat steroid C17,20-lyase in vitro; assay type: biochemical; conditions: rat testicular microsomes, 10 nM [1,2-3H]-17-α-hydroxyprogesterone, NADPH, 7 min at 37° C., products testosterone and androstenedione
T1 construct: Testes excised from 13-week old, male SD rats were homogenized, and testicular microsomes were prepared; from tissue; host or cells: testicular microsomes of 13-week old male SD rats
T1 sequence (P11715 1-507): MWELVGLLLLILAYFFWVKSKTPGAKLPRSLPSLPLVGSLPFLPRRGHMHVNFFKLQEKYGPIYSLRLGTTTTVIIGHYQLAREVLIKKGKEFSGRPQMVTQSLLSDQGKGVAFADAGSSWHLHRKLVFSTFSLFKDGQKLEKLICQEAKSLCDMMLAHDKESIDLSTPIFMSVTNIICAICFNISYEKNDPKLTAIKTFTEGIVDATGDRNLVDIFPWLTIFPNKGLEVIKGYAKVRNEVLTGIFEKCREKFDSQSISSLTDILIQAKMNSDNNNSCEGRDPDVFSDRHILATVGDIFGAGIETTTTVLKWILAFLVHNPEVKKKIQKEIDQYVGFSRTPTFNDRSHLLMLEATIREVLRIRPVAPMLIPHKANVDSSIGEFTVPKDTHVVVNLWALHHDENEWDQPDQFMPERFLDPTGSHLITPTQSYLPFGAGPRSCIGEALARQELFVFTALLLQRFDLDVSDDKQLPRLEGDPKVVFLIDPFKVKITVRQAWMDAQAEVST
Procedure: Assay of Inhibitory Activity on a Rat Steroid C17,20-lyase in Vitro
Inhibitory activity was determined according to the method described in The Prostate, vol. 26, 140-150(1995) with some modifications.
Testes excised from 13-week old, male SD rats were homogenized, and testicular microsomes were prepared by a series of centrifugation. The microsome protein (7 μg/10 μl) was added to 101 μl of 100 mM phosphate buffer (pH 7.4) in which 10 nM (final concentration) [1,2-3H]-17-α-hydroxyprogesterone, NADPH, and test compounds were dissolved. The reaction mixture was incubated for 7 min at 37° C., terminated by addition of 40 μl of ethyl acetate, and briefly centrifuged. The substrate and the products (testosterone and androstenedione) in the upper phase were separated by silica gel thin layer chromatography. Detection of the spots and measurement of the radioactivity were performed by a BAS 2000 Bioimage analyzer. The concentration of the test compounds necessary to reduce the concentration of the products by 50% (The concentration in the control group in which no test compound was added was taken as 100%) was calculated, and shown in Table 1.

[1] = system: testosterone biosynthesis; test: Inhibitory activity on testosterone biosynthesis in rats; assay type: in vivo, rat; conditions: male SD rats, oral, 50 mg/kg, serum testosterone 2 h later by radioimmunoassay, percentage of control group
Procedure: Assay of Inhibitory Activity on Testosterone Biosynthesis in Rats
Test compounds were orally administered to 9-week old, male SD (Sprague-Dawley rats at a dose of 50 mg/kg. Two-h later blood was taken and testosterone concentration in serum was measured by radioimmunoassay. The percentage of the testosterone concentration of the groups of rats, which received test compounds, to that of the control group was calculated, and regarded as the inhibitory activity.

SMILES | IC50 (Rat Steroid C17,20-lyase) [nM] | Inhibitory activity on testosterone bioxynthesis (T/C, %) [1] [%]
CCC(O)(c1ccc2c3c(ccc2c1)OCC3)c1c[nH]cn1 (stereo not drawn) [Example 18, 1-(1,2-Dihydronaphtho[2,1-b]furan-7-yl)-1-(1H-imidazol-4-yl)-1-propanol] | 18 | 7.4
CC(C)C(O)(c1ccc2cc(-c3ccco3)ccc2c1)c1c[nH]cn1 (stereo not drawn) [Example 2, 1-(6-(2-Furyl)-2-naphthyl)-1-(1H-imidazol-4-yl)-2-methyl-1-propanol] | 28 | –
CC(C)C(O)(c1ccc2cc(-c3cn[nH]c3)ccc2c1)c1c[nH]cn1 (stereo not drawn) [Example 6, 1-(1H-Imidazol-4-yl)-2-methyl-1-(6-(1H-pyrazol-4-yl)-2-naphthyl)-1-propanol] | 15 | 10
CC(C)C(O)(c1ccc2cc(-c3cnco3)ccc2c1)c1c[nH]cn1 (stereo not drawn) [Example 7, 1-(1H-Imidazol-4-yl)-2-methyl-1-(6-(1,3-oxazol-5-yl)-2-naphthyl)-1-propanol] | 14 | –

These reach a lower IC50 (Rat Steroid C17,20-lyase). Values come first.

IC50 (Rat Steroid C17,20-lyase) [nM] | SMILES | Inhibitory activity on testosterone bioxynthesis (T/C, %) [1] [%]
3.3 | COc1cc2ccc([C@](O)(c3c[nH]cn3)C(C)C)cc2cc1OC [Example 22, (S)-(−)-1-(6,7-Dimethoxy-2-naphthyl)-1-(1H-imidazol-4-yl)-2-methyl-1-propanol.fumaric Acid Salt] | –
6.1 | CNC(=O)c1ccc2cc(C(O)(c3c[nH]cn3)C(C)C)ccc2c1 (stereo not drawn) [Example 9, 6-(1-Hydroxy-1-(1H-imidazol-4-yl)-2-methyl-propyl)-N-methyl-2-naphthamide] | 4.5
